Measurements: paper PMC2990756, “Quantitative High-Throughput Screening Identifies 8-Hydroxyquinolines as Cell-Active Histone Demethylase Inhibitors” (PLoS ONE, 2010)
Where two headings read alike, the source gives them in different places.

Experiments:
Type in all cases: biochemical
JMJD2E (KDM4E) = target: T1, JMJD2E (KDM4E) (Homo sapiens, UniProt B2RXH2); assay: qHTS fluorescence FDH-coupled JMJD2E demethylase assay
T1 construct: The catalytic domain of human JMJD2E (residues 1–337); His6 (N); made in house; host or cells: E. coli
T1 sequence (B2RXH2 1-337): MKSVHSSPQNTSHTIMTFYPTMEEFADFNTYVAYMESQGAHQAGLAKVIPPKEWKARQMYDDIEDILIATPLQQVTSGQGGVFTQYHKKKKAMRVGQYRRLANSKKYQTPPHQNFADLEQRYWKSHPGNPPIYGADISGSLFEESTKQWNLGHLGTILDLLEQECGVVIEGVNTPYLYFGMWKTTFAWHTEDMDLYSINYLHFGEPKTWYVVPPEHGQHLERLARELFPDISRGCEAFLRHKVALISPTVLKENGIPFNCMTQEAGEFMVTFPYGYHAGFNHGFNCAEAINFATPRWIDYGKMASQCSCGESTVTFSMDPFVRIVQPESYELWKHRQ
Excerpt: The oxidation of formaldehyde is coupled to the reduction of NAD^+ to NADH, which is monitored by fluorescence spectroscopy. […] To this end, initial screening hits were filtered by a combination of cheminformatics (to exclude low-confidence inhibitors and autofluorescent false positives), counterscreening against the coupled-assay component formaldehyde dehydrogenase (FDH), and orthogonal direct detection of inhibition of demethylation by mass spectrometry ( Figure 1 ).
Reactions were initiated with 1 µL addition of peptide substrate solution containing final concentrations of 10 µM FAS, 50 µM 2OG, 0.25 U/mL FDH, 0.25 mM NAD^+, and 50 µM peptide substrate (ARK(me3)STGGK). A ViewLux imager (PerkinElmer, Waltham, MA) was used to measure NADH fluorescence (λex 340 nm, λem 450 nm) immediately after substrate addition and following 30 min incubation at room temperature. To record any systematic drifts in assay behavior (signal window and noise), assay plates containing no library compounds but only DMSO as a vehicle control were tested periodically (every ∼60 plates) throughout the screen.
Data were normalized to the basal response (0% activity) in the absence of enzyme and the maximal response (100% activity) in the absence of compound. Using the Hill equation, dose-response curves and IC50 values were automatically generated for each compound tested with software developed internally (www.ncgc.nih.gov/pub/openhts/curvefit/). […] The initial well fluorescence (first kinetic read) associated with each sample was stored in a database and used in the cheminformatics analysis to identify autofluorescent compounds interfering with the assay signal.

[1] = target: T2, formaldehyde dehydrogenase (FDH) (Pseudomonas putida, UniProt P46154); assay: FDH coupling enzyme counterscreen; conditions: Table S1, FDH counterscreen; for IC50: unit not in table, from Figure 2, read-out: qHTS Data: jmjd2e fdh IC50
T2 construct: purchased Sigma-Aldrich
Excerpt: Dimethylsulfoxide certified ACS grade (DMSO) was from Fisher, Inc. HEPES buffer was obtained from Gibco. […] Black solid-bottom 1,536-well assay plates were from Greiner Bio-One (Monroe, NC).

JMJD2E = target: T3, JMJD2E (Homo sapiens, UniProt B2RXH2); assay: JMJD2E FDH-coupled assay under low and high iron conditions (iron chelation profile); design: The catalytic domain of human JMJD2E (residues 1–337); His6 (N); made in house; host or cells: E. coli; conditions: Table S1; for IC50: unit not in table, from Figure 2
T3 sequence (B2RXH2 1-337): T1 sequence (B2RXH2 1-337)
Description: The prioritized compounds were also evaluated in the screening assay using two different ferrous ion concentrations (termed high iron and low iron, respectively), in order to assess their propensity for iron chelation.
The ratio of IC50 values under high iron to low iron was calculated for each compound.

[2] = Table S1, unit not in table, from Figure 2, read-out: qHTS Data: jmjd2e IC50
[3] = high iron, head says 20 µM FAS, read-out: qHTS Data: jmjd2e fas20um IC50
[4] = low iron 2.5 µM FAS, read-out: qHTS Data: jmjd2e fas2.5um IC50

T2 sequence (P46154 whole entry): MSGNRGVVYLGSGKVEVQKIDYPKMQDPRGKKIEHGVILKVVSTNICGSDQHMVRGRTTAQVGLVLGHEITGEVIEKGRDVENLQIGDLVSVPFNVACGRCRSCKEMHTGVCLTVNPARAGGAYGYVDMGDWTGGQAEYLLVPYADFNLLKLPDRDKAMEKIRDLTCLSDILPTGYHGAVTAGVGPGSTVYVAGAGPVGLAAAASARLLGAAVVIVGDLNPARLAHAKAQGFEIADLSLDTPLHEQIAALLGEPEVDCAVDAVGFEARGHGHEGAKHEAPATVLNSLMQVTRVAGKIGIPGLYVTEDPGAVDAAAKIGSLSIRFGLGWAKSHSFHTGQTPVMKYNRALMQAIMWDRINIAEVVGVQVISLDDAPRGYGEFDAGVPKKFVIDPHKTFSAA

SMILES | IC50 (JMJD2E (KDM4E); [2]) [µM] | qHTS Data: jmjd2e fdh CurveClass [1] | IC50 [1] [µM] | IC50 (JMJD2E; [3]) [µM] | IC50 (JMJD2E; [4]) [µM] | qHTS Data: jmjd2e fas20um CurveClass (JMJD2E; high iron) | qHTS Data: jmjd2e fas2.5um Curve comment (JMJD2E; low iron 2.5 µM FAS) | IC50 (JMJD2E (KDM4E); Figure 3, substituted 8-hydroxyquinolines against JMJD2E, read-out: IC50 /μM (qHTS IC50, FDH-coupled assay)) [µM]
COc1ccc(-n2c(C)cc(/C=N/Nc3nnc(C)n3N)c2C)cc1.Cl [compound 22416865] | 0.71 | Poor quality curve | 28.2 | 5.01 | 5.01 | – | – | –
CCN1/C(=C\c2ccc3ccccc3[n+]2CC)Sc2cc(C)ccc21.[I-] [compound 24782097] | 1.41 | Poor quality curve | 22.4 | 14.1 | 17.8 | Poor quality curve | Poor quality curve | –
O=C(CSc1ncn[nH]1)CSc1ncn[nH]1 [compound 24783149] | 3.55 | – | 1 | – | 6.31 | Inactive | – | –
Cc1ccnc(NC(c2cccnc2)c2ccc3cccnc3c2O)c1 (stereo not shown) [compound 24794739] | 5.62 | Poor quality curve | 0.03 | 14.1 | 11.2 | – | – | –
O=C(CC1Sc2ncnn2C1=O)Nc1ccc(Cl)cc1 (stereo not shown) [compound 24795544] | 1.58 | – | 0.25 | 7.94 | 2 | – | – | –
Oc1ccc(NCc2cccc(OCc3ccccc3)c2)cc1 [compound 24795995] | 4.47 | Inactive | – | 35.5 | 14.1 | – | – | –
Cc1cc(C(=O)NNC(=S)Nc2ccccc2)nn1C [compound 24796479] | 8.91 | Inactive | – | 7.94 | 7.08 | – | – | –
CCOC(=O)c1ccc(CC(=O)c2ccc(O)c(O)c2O)o1 [compound 24797852] | 3.16 | Inactive | – | 10 | 1.41 | – | – | –
CN(C)c1ccnc(C(=O)O)c1 [compound 24815512] | 2.82 | Inactive | – | 15.8 | – | Poor quality curve | Inactive | –
NC(=O)c1ccc(-n2nnnc2SCC(=O)c2ccc(O)c(O)c2)cc1 [compound 24821381] | 0.71 | Inactive | – | – | 7.94 | Inactive | – | –
Oc1c(C(Nc2nccs2)c2ccc(C(F)(F)F)cc2)ccc2cccnc12 (stereo not shown) [compound 24832893] | 3.55 | Inactive | – | 12.6 | 28.2 | – | – | –
CN(C)S(=O)(=O)c1cccc(-n2sc3ccccc3c2=O)c1 [compound 24834029] | 3.55 | Poor quality curve | 7.94 | 1.26 | 4.47 | – | – | –
Cc1ccc(C)c(S(=O)(=O)N2CCN(Cc3ccc(O)c4ncccc34)CC2)c1 [compound 24838962] | 3.55 | Inconclusive | – | – | 10 | Inactive | – | –
C[C@@H]1Cc2c(O)c(O)cc(O)c2C(=O)O1 [compound 26657786] | 2 | Inactive | – | – | 3.55 | Inactive | – | –
COc1cc(/C=N/Nc2nncn2N)ccc1OCc1c(C)no[n+]1[O-] [compound 26657989] | 0.5 | Inactive | – | – | 4.47 | Inactive | – | –
O=C(CCc1ccccc1)NCC(=O)N/N=C/c1ccc(O)cc1O [compound 26660953] | 6.31 | Poor quality curve | 17.8 | 4.47 | 4.47 | – | – | –
CC(C)c1ccccc1NC(=O)CNCCc1ccc(C(F)(F)F)cc1.O=C(O)C(=O)O [compound 26661422] | 3.16 | Inactive | – | – | 28.2 | Inactive | – | –
C/C(=N\Nc1ccc2nncn2n1)c1ccccn1 [compound 26664046] | 10 | Poor quality curve | 35.5 | 8.91 | 8.91 | – | – | –
O=Cc1ccc(O)c2ncccc12 [compound 26664581] | 3.16 | Inactive | – | 56.2 | 7.08 | Poor quality curve | – | 3.2
O=c1c(O)cccc2cc(O)c(O)c(O)c12 [compound 26665710] | 7.94 | Poor quality curve | 6.31 | 12.6 | 2.24 | – | – | –
O=c1cc2c(=O)oc3cc(O)c(O)oc3c2c(O)c1O [compound 26666750] | 3.98 | Inactive | – | 15.8 | 1.78 | – | – | –
COc1ccc(Cn2c(O)c(/C=N/NC(=O)c3ccncc3)c(=O)[nH]c2=O)cc1 [compound 26667135] | 7.94 | Poor quality curve | 14.1 | 8.91 | 8.91 | – | – | –
Cc1cccc(OCC(=O)NCC(=O)N/N=C/c2ccc(O)cc2O)c1 [compound 26671311] | 3.16 | Poor quality curve | 0.25 | – | 4.47 | Inactive | – | –
O=C1C=C(O)c2cccc(O)c2C1=O [compound 26724134] | 7.94 | Inactive | – | 19.9 | 14.1 | – | Poor quality curve | –
N#C/C(=C\c1cc(O)c(O)c(O)c1)C(N)=O [compound 26725225] | 1 | Poor quality curve | 39.8 | 8.91 | 2.24 | – | – | –
O=C(/C=C/c1ccccc1)NC(=S)NNC(=O)c1cnccn1 [compound 26725782] | 8.91 | Poor quality curve | 35.5 | 7.08 | 7.08 | – | – | –
O=c1cnnc(N/N=C/c2ccccn2)[nH]1 [compound 26726276] | 3.55 | Inactive | – | – | 6.31 | Inactive | – | –
COC(=O)c1ccc(=O)c2nc3/c(=C/O)c(O)cc(=O)c3[nH]c12 [compound 26732584] | 8.91 | Inactive | – | – | 2.24 | Inconclusive | – | –
O=C(O)c1cc(O)c(O)c(O)c1 [compound 26747307] | 0.35 | Poor quality curve | 31.6 | 17.8 | 0.13 | – | – | –
CC1=CC(=O)c2c(O)cccc2C1=O [compound 26747815] | 8.91 | Poor quality curve | 17.8 | 12.6 | 2.24 | – | – | –
